Data taken from patent US8119128B2, “Antibodies that bind urokinase-type plasminogen activator and epitopes therefor” (The Regents of the University of Colorado, a body corporate, priority 2004, dated 2012).

Legend:
Type in all cases: cell-based, mouse
integrins = test: RGD or RGE peptide added to neutrophil cultures containing uPA and LPS; conditions: LPS 10 ng/ml, scuPA 10 nM, peptide 50 μM, 4 hours; FIG. 7
Experimental: (§1) Isolation of neutrophils. Neutrophils were purified from bone marrow cell suspensions as previously described by Abraham, et al., J Immunol 170:5644 (2003), Asehnoune, et al., J Immunol 172:2522 (2004), and Strassheim, et al., Am J Physiol Cell Physiol 286:C683 (2004). Briefly summarized, to obtain the bone marrow cell suspension, the femur and tibia of a mouse were flushed with 5 ml RPMI 1640/penicillin/streptomycin and the cells passed through a glass wool column, and pelleted by centrifugation at 1000 rpm for 10 minutes. The cell pellets were resuspended in 0.3% FCS/PBS and then incubated with 20 μl of primary antibodies specific for cell surface markers F4/80, CD4, CD45R, CD5, and TER19 for 15 minutes, rotating at 4° C. This custom cocktail (Stem Cell Technologies, Vancouver, British Columbia) is specific for T and B cells, RBC, monocytes and macrophages. Anti-biotin tetrameric antibody complexes (100 μl) were then added, and the cells incubated for 15 minutes, rotating at 4° C. Following this, 60 μl of colloidal magnetic dextran iron particles was added to the suspension and incubated for 15 minutes, rotating at 4° C. The entire cell suspension was then placed into a column, surrounded by a magnet. The T cells, B cells, RBC, monocytes and macrophages were captured in the column, allowing the neutrophils to pass through by negative selection methods. Neutrophil purity, as determined by Wright's stained cytospin preparations, was greater than 97%. Cell viability, as determined by trypan blue exclusion, was consistently greater than 98%.
(§2) Real time quantitative RT-PCR. Quantitative RT-PCR to measure neutrophil cytokine expression was performed as previously described by Abraham, et al., J Immunol 170:5644 (2003), and Park, et al., Am J Physiol Cell Physiol 284:C870 (2003). […] For each mRNA detected, a fluorogenic probe and two primers (forward and reverse) for PCR were synthesized (Applied Biosystems, Foster City, Calif.). […]

[1] = tested on: LPS stimulated neutrophils; test: LPS-induced cytokine mRNA expression in neutrophils, quantitative RT-PCR; conditions: LPS 10 ng/ml, protein 10 nM, 4 hours; FIG. 1-4
Experimental: Isolation of neutrophils. Neutrophils were purified from bone marrow cell suspensions as previously described by Abraham, et al., J Immunol 170:5644 (2003), Asehnoune, et al., J Immunol 172:2522 (2004), and Strassheim, et al., Am J Physiol Cell Physiol 286:C683 (2004). Briefly summarized, to obtain the bone marrow cell suspension, the femur and tibia of a mouse were flushed with 5 ml RPMI 1640/penicillin/streptomycin and the cells passed through a glass wool column, and pelleted by centrifugation at 1000 rpm for 10 minutes. […] Neutrophil purity, as determined by Wright's stained cytospin preparations, was greater than 97%. Cell viability, as determined by trypan blue exclusion, was consistently greater than 98%.
as §2
All reagents used in the one step RT-PCR reactions were purchased from Applied Biosystems. […] The amount of cytokine mRNA was determined from a standard curve with 10 fold dilutions of known amounts of target RNA for each primer and probe set. […]

[2] = tested on: LPS stimulated neutrophils; test: Cytokine ELISA of culture supernatants of LPS stimulated neutrophils; conditions: LPS 10 ng/ml, protein 10 nM, 4 hours, FIG. 5
Experimental: as §1, with “Anti-biotin tetrameric antibody complexes (100 μl) were then added, and the cells incubated for 15 minutes, rotating at 4° C. Following this, 60 μl of colloidal magnetic dextran iron particles was added to the suspension and incubated for 15 minutes, rotating at 4° C. The entire cell suspension was then placed into a column, surrounded by a magnet. The T cells, B cells, RBC, monocytes and macrophages were captured in the column, allowing the neutrophils to pass through by negative selection methods.” left out
Cytokine ELISA. Immunoreactive TNF-α, IL-1β, and MIP-2 were quantified using commercially available ELISA kits (R&D Systems, Minneapolis, Minn.), according to manufacturer's instructions and as described previously by Yum, et al., J Immunol 167:6601 (2001). […]

Molecule	uPA-induced potentiation of neutrophil responses (integrins)	enhancement of LPS-induced cytokine mRNA expression (IL-1β, TNF-α, MIP-2) compared with scuPA [1]	increased production of IL-1β, TNF-α, and MIP-2 produced by co-culture of LPS stimulated neutrophils with scuPA (integrins)	neutrophil production (secretion) of IL-1β, TNF-α, and MIP-2 [2]
RGE: RGE peptide that serves as a control	not	–	–	–
ATF: amino terminal fragment of uPA, which contains the uPA GFD and KD	–	to the same extent as did scuPA	–	–
RGD: RGD peptide that blocks interactions with integrins	blocked	–	prevented	–
KD: purified kringle domain of uPA (amino acids 47-135), SEQ ID NO:2 epitope (protein) SKTCYEGNGHFYRGKASTDTMGRPCLPWNSATVLQQTYHAHRSDALQLGLGKHNYCRNPDNRRRPWCYVQVGLKPLVQECMVHDCA	–	to the same extent or even a greater extent than did scuPA	–	to the same extent as did intact scuPA
